According to patent US20030100479A1, “Gene polymorphisms and response to treatment” (priority 2001, published 2003):
“Also recorded” adds a separate entry of the source.

Legend:
[1] = Clinical trial of GW320659: change in supine diastolic blood pressure (time-adjusted AUC), by genotype; type: in vivo, human
Excerpt: (§1) Using genotyping methods as are well known in the art, genetic data were obtained from approximately 200 of more than 500 human subjects enrolled in a dose-ranging efficacy and safety study of GW320659 for weight loss (main study group; a randomized, double-blind, placebo controlled, dose-ranging clinical trial); GW320659 was used in conjunction with a mildly hypocaloric diet and brief weight management guidance. Subjects were between the ages of 18-65 years, with a Body Mass Index (BMI) of 30-40, and were not on any psychotropic medications or other anti-obesity medications. Subjects were randomized into one of five treatment groups: placebo or GW320659 at 2.5 mg/day, 5 mg/day, 10 mg/day, or 15 mg/day (oral administration). In the main study group, for the GW320659 15 mg/day dosage, average weight loss was approximately 3.7 kg (108 subjects; data not shown).
(§2) Subjects were assessed for various parameters, including absolute change in body weight from week 0 to week 24 of the study; supine heart rate, diastolic blood pressure and systolic blood pressure at multiple predetermined time-points across the study; and change in Food Craving Inventory (Total) score from week 0 to week 24.
(§3) Analyses of changes in cardiovascular endpoints (HR, SBP, DBP, all measured in supine subjects) were conducted individually for each of the polymorphic sites, and analyzed as follows. Vital sign assessments at all post-baseline visits were analyzed utilizing a repeated measures (mixed) ANOVA model. Genotype by treatment interactions were assessed. The following model was used.
If the treatment by time interaction was non-significant, the corresponding term was planned to be removed from the model, prior to assessing treatment by genotype interaction. Subsequently, this term was removed for all vital signs analyses. In addition, vital signs data was analyzed utilizing a time-weighted area under the curve (adjusted for baseline) analysis. Model #2 (used for the efficacy analyses) was employed for these analyses.
Supine heart rate (HR), supine systolic blood pressure (SBP) and supine diastolic blood pressure (DBP) were assessed at various fixed intervals across the duration of the study. Summaries and analyses were conducted on the “area under the curve” (AUC) values (adjusted for time on study and baseline). All reported p-values in this section refer to AUC analyses, using Model No.2 as described above.
Accordingly, for some recursive partioning analysis the treatment groups were split in this manner (15 mg versus all other groups). The p-value threshold was set 0.10 (the minimum level necessary to get further automatic splits). The software then determined the remaining splits for the 15 mg group. […]

[2] = Dose-ranging clinical trial of GW320659 for weight loss: absolute change in body weight week 0 to week 24, by genotype; type: in vivo, human; conditions: for Placebo adjusted mean absolute change in body weight / Placebo adjusted mean absolute change in weight: 15 mg dose group
Excerpt: The present inventors determined that the genetic polymorphisms identified herein are associated with differences in phenotypic response to treatment with the neuronal monoamine reuptake inhibitor GW320659. In the present study, the genotyped subjects had been recruited from a randomized placebo-controlled study of GW320659 for the treatment of obesity, in conjunction with a mildly hypocaloric diet and brief weight management guidance. Subjects had been randomized into one of five treatment groups: placebo or GW320659 at 2.5 mg/day, 5 mg/day, 10 mg/day, or 15 mg/day; outcome measurements included weight loss over baseline weight and changes in supine heart rate, supine diastolic blood pressure, and supine systolic blood pressure.
The primary outcome measurement was the individual's absolute change from baseline body weight (weight at week 0, randomization visit) to weight after 24 weeks of treatment. Genotypes associated with at least a 5.8 kg average weight loss over the 24 week study for subjects receiving 15 mg/day GW320659 are shown in Table 2. The average weight loss in the total (non-genotyped) clinical trial of GW320659 (at the 15 mg/day dosage) was 3.7 Kg (data not shown).
as §1, §2
Change in body weight was analyzed using Analysis of Variance (ANOVA); body weight at Week 0 (randomization visit) was used as the baseline weight. The absolute change from baseline in body weight at week 24 was the dependent (response) variable. The primary independent variables were treatment group and genotype. Treatment by genotype interaction was assessed with the appropriate orthogonal trend (treatment) by genotype contrasts. […] The primary model is denoted as follows:
Recursive partioning (HelixTree Software, May 1, 2001) was used to further examine the data. Due to sample size constraints, a combination of automatic and manual splits were used to best describe the underlying relationships between genotypes, treatment dose, and other demographic variables for each selected endpoint. Recursive partioning was applied to the following endpoints: change in weight, change in food craving (total score) inventory, change (Area Under the Curve (AUC) adjusted) in supine heart rate, and change (AUC adjusted) in supine diastolic blood pressure.
The multilocus genotypes from each individual were used to enumerate all possible haplotypes. These haplotypes were assigned starting frequencies. The haplotype frequencies were updated with frequencies calculated from all the possible haplotypes from each individual in the sample. This continued until the frequencies were constant from iteration to iteration.
Regression-based models were used to relate inferred haplotype probabilities for each individual with the continuous response.

dopamine reuptake = conditions: Kelley et al., J. Med. Chem. 39:347 (1996); cited from earlier work
[3] = Clinical trial of GW320659: change in supine systolic blood pressure (time-adjusted AUC), by genotype; type: in vivo, human
Excerpt: as §1, with “Subjects were randomized into one of five treatment groups: placebo or GW320659 at 2.5 mg/day, 5 mg/day, 10 mg/day, or 15 mg/day (oral administration). In the main study group, for the GW320659 15 mg/day dosage, average weight loss was approximately 3.7 kg (108 subjects; data not shown).” left out
as §2
as §3, with “The following model was used.” left out

norepinephrine uptake = conditions: Kelley et al., J. Med. Chem. 39:347 (1996); cited from earlier work
[4] = NET1 T342C (2,2) and without DRD2 C12121T (2,2), 10 mg/day or 15 mg/day
[5] = subgroup 2/2 NET1T342C and/or 2/2 NET1G155A and/or 2/2 NR1G6435A, 10 mg/day+15 mg/day, 26 subjects

For `C[C@@H]1CO[C@@](O)(c2cc(F)cc(F)c2)[C@H](C)N1.Cl` [GW320659, (2S,3S,5R)-2-(3,5-difluorophenyl)-3,5-dimethyl-2-morpholinol], the “Changes in diastolic blood pressure compared to subjects with alternate genotypes” value [1, 4] was “decreased changes in heart rate and blood pressure; also recorded: comparatively small changes in HR, SBP and DBP”, the “Mean rise in DBP” value ([1]; subgroup 2,2 for NET1T342C and/or NET1G155A and/or NR1G6435A, 10 mg and 15 mg combined) was 2.4 mmHG and the “Overall mean time-adjusted change in Diastolic Blood Pressure, mean rise” value ([1]; subgroup 2,2 for NET1T342C and/or NET1G155A and/or NR1G6435A, 10 mg/day+15 mg/day, not significantly different from placebo) was 2.4 mm Hg. The “Diastolic Blood Pressure (mean time adjusted change)” value [1, 5] was 2.431, the “Average weight loss, main study group” value ([2]; 15 mg/day oral, 108 subjects, data not shown) was “approximately 3.7 kg” and the “Average weight loss, total (non-genotyped) clinical trial” value ([2]; 15 mg/day, 24 weeks, not divided by genotype, data not shown) was 3.7 kg. For the same molecule, the Average weight loss ([2]; 5HTT Del-Ins (1,2) genotype, 15 mg/day dose) was -5.2 kg, the “Average Weight Loss (Kg)(range)” value ([2]; 5HTT G160A genotype 2,2, 15 mg/day, 24 weeks) was −6.1 (−10.3, −3.2) Kg and the “Average Weight Loss (Kg)(range)” value ([2]; 5HTT G769T genotype 1,1, 15 mg/day, 24 weeks) was −6.0 (−9.5, −3.2) Kg. For the same molecule, the “Average Weight Loss (Kg)(range)” value ([2]; DAT1 genotype 9,9, 15 mg/day, 24 weeks) was −7.6 (−22.1, −1.1) Kg, the “Average Weight Loss (Kg)(range)” value ([2]; DAT1 genotype 10,9, 15 mg/day, 24 weeks) was −6.6 (−20.4, 1.3) Kg and the “Average Weight Loss (Kg)(range)” value ([2]; NET1 C120A genotype 2,2, 15 mg/day, 24 weeks) was −5.8 (−20.4, 1.3) Kg. For the same molecule, the “Absolute change in weight (largest for any sub-group)” value ([2]; NET1 G155A 2,2 genotype, 15 mg dose, n=4) was -9.0 kg, the “Average Weight Loss (Kg)(range)” value ([2]; NET1 G155A genotype 2,2, 15 mg/day, 24 weeks) was −9.0 (−20.4, −3.3) Kg and the “Mean absolute change in weight” value ([2]; NET1 T342C 2,2 genotype, 15 mg dose, n=7) was -7.1 kg. For the same molecule, the “Weight loss compared to subjects with alternate genotypes” value [2, 4] was “increased weight loss”, the “Placebo adjusted mean absolute change in body weight” value ([2]; NET1 T342C genotype 1,1) was -2.8 kg and the “Placebo adjusted mean absolute change in body weight” value ([2]; NET1 T342C genotype 1,2) was -3.3 kg. The “Placebo adjusted mean absolute change in body weight” value ([2]; NET1 T342C genotype 2,2) was -7.3 kg, the “Average Weight Loss (Kg)(range)” value ([2]; NET1 T342C genotype 2,2, 15 mg/day, 24 weeks) was −7.1 (−13.7, 0) Kg and the “Average Weight Loss (Kg)(range)” value ([2]; NR1 G1001C genotype 1,2, 15 mg/day, 24 weeks) was −6.0 (−13.7, −0.9) Kg. For the same molecule, the “Placebo adjusted mean absolute change in weight” value ([2]; NR1 G6435A genotype 1,1) was -4.4 kg, the “Placebo adjusted mean absolute change in weight” value ([2]; NR1 G6435A genotype 1,2) was -1.9 kg and the “Placebo adjusted mean absolute change in weight” value ([2]; NR1 G6435A genotype 2,2, three placebo and four GW320659 subjects) was -10.3 kg. For the same molecule, the “Average Weight Loss (Kg)(range)” value ([2]; NR1 G6435A genotype 2,2, 15 mg/day, 24 weeks) was −6.9 (−9.2, −3.3) Kg, the “Weight Loss at 24 weeks, Mean” value ([2]; haplotype 1,1 NET1G155A NET1T342C, All Ethnicities, 10-15 mg (Table 4)) was −2.007 and the “Weight Loss at 24 weeks, Mean” value ([2]; haplotype 1,1 NET1G155A NET1T342C, Caucasians, 10-15 mg (Table 5)) was −1.739. For the same molecule, the “Weight Loss at 24 weeks, Mean” value ([2]; haplotype 1,2 NET1G155A NET1T342C, All Ethnicities, 10-15 mg (Table 4)) was −4.325, the “Weight Loss at 24 weeks, Mean” value ([2]; haplotype 1,2 NET1G155A NET1T342C, Caucasians, 10-15 mg (Table 5)) was −4.416 and the “Weight Loss at 24 weeks, Mean” value ([2]; haplotype 2,1 NET1G155A NET1T342C, All Ethnicities, 10-15 mg (Table 4)) was −3.886. For the same molecule, the “Weight Loss at 24 weeks, Mean” value ([2]; haplotype 2,1 NET1G155A NET1T342C, Caucasians, 10-15 mg (Table 5)) was −2.9211, the “Weight Loss at 24 weeks, Mean” value ([2]; haplotype 2,2 NET1G155A NET1T342C, All Ethnicities, 10-15 mg (Table 4)) was −9.99 and the “Weight Loss at 24 weeks, Mean” value ([2]; haplotype 2,2 NET1G155A NET1T342C, Caucasians, 10-15 mg (Table 5)) was −9.413. The Mean weight loss ([2]; subgroup 2,2 for NET1T342C and/or NET1G155A and/or NR1G6435A, 10 mg/day+15 mg/day combined, 24 weeks) was 6.05 kg, the “Change in weight at Week 24” value [2, 5] was -6.05 kg and the “Mean weight loss at 24 weeks” value ([2]; subgroup 2/2 for NET1T342C and not 2/2 for DRD2C12121T) was ≥ 6 kg. The Mean weight loss ([2]; subgroup DAT1VNTR 10,9 or 9,9, 15 mg/day, 24 weeks) was 6.89 kg, the “Inhibition of dopamine reuptake” value (dopamine reuptake) was “weaker reuptake inhibition effects on dopamine reuptake” and the “Changes in systolic blood pressure compared to subjects with alternate genotypes” value [3, 4] was “decreased changes in heart rate and blood pressure; also recorded: comparatively small changes in HR, SBP and DBP”. For the same molecule, the “Systolic Blood Pressure (mean time adjusted change)” value [3, 5] was 0.9733 and the “Inhibition of norepinephrine uptake” value (norepinephrine uptake) was “potent, selective inhibitor of norepinephrine uptake”.
